Read-outs that look alike come from different tables or passages of the source.
Assays:
A549 [1] = details: human, 72 h
in vitro [2] = details: monkey
Human HDAC11 = Human HDAC11 (Homo sapiens (Human), UniProt Q96DB2); assay: HDAC enzymatic assay, HDAC11; format: biochemical; details: 10-dose IC50 mode with a 3-fold serial dilution; read-out: HDAC subtypes IC50 HDAC11
Method: (§1) The IC50 values for aforementioned compounds against HDACs were determined. HDAC 1 to 11 can be assayed by using acetylated AMC-labeled peptide substrate.
(§2) Human HDAC1 GenBank Accession No. NM_004964): Full length with C-terminal GST tag, MW=79.9 kDa, Human HDAC2 (GenBank Accession No. Q92769): Full length with C-terminal His tag, MW=60 kDa. Human HDAC3/NcoR2 (GenBank Accession No. […] for HDAC3, GenBank Accession No. NM_006312 for NcoR2): Complex of human HDAC3, full length with C-terminal His tag, MW=49.7 kDa, and human NCOR2, N-terminal GST tag, MW=39 kDa. Human HDAC6 (GenBank Accession No. BC069243): Full length with N-terminal GST tag, MW=159 kDa. Human HDAC8 (GenBank Accession No. NM018486): Full length, MW=42 kDa, expressed in an E. coli expression system.
(§3) Human HDAC1, Human HDAC2, Human HDAC3/NcoR2, Human HDAC6, Human HDAC10, and Human HDAC11 were all expressed by baculovirus expression system in Sf9 cells.
(§4) 50 μM HDAC substrate. 1% DMSO final. Incubation for 2 hours at 30° C.

HL60 = assay: Cell proliferation assay MTT, HL60; details: read-out: Cytotoxicity IC50 Leukemia HL60, 72 hr treated
LNCap [3] = details: human, 72 h
MV4-11 = assay: Cell proliferation assay MTT, MV4-11
HepG2 [4] = details: human, 72 h
Human HDAC1 = Human HDAC1 (Homo sapiens (Human), UniProt Q13547); assay: HDAC enzymatic assay, HDAC1; format: biochemical; details: 10-dose IC50 mode with a 3-fold serial dilution; read-out: HDAC subtypes IC50 HDAC1
Method: as §1, §2, §3, §4

U87MG [5] = details: human, 72 h
PANC1 [6] = details: human, 72 h
MOLM13 = assay: Cell proliferation assay MTT, MOLM13
Human HDAC8 = Human HDAC8 (Homo sapiens (Human), UniProt Q9BY41); assay: HDAC enzymatic assay, HDAC8; format: biochemical; details: 10-dose IC50 mode with a 3-fold serial dilution; read-out: HDAC subtypes IC50 HDAC8
Method: as §1, §2, §4

in vitro [7] = details: human
Human HDAC6 = Human HDAC6 (Homo sapiens (Human), UniProt Q9UBN7); assay: HDAC enzymatic assay, HDAC6; format: biochemical; details: 10-dose IC50 mode with a 3-fold serial dilution; read-out: HDAC subtypes IC50 HDAC6
Method: as §1, §2, §3, §4

Vero = assay: Cell proliferation assay MTT, Vero normal cells; details: read-out: Cytotoxicity IC50 Monkey normal Vero, 72 hr treated
LNCap [8] = assay: Cell proliferation assay MTT, LNCaP; details: read-out: Cytotoxicity IC50 Prostate LNCap, 72 hr treated
HepG2 [9] = assay: Cell proliferation assay MTT, HepG2; details: read-out: Cytotoxicity IC50 Liver HepG2, 72 hr treated
A549 [10] = assay: Cell proliferation assay MTT, A549; details: read-out: Cytotoxicity IC50 Lung A549, 72 hr treated
PANC1 [11] = assay: Cell proliferation assay MTT, PANC1; details: read-out: Cytotoxicity IC50 Pancreas PANC1, 72 hr treated
U87MG [12] = assay: Cell proliferation assay MTT, U87MG; details: read-out: Cytotoxicity IC50 Glioblastoma U87MG, 72 hr treated
[13] = human, MV4-11 leukemia cells, 72 h
[14] = human, MOLM13 leukemia cells, 72 h
[15] = read-out: Cytotoxicity IC50 Leukemia MV4-11, MTT assay, 72 hr treated
[16] = read-out: Cytotoxicity IC50 Leukemia MOLM13, MTT assay, 72 hr treated

Human HDAC6, sequence (Q9UBN7 whole entry): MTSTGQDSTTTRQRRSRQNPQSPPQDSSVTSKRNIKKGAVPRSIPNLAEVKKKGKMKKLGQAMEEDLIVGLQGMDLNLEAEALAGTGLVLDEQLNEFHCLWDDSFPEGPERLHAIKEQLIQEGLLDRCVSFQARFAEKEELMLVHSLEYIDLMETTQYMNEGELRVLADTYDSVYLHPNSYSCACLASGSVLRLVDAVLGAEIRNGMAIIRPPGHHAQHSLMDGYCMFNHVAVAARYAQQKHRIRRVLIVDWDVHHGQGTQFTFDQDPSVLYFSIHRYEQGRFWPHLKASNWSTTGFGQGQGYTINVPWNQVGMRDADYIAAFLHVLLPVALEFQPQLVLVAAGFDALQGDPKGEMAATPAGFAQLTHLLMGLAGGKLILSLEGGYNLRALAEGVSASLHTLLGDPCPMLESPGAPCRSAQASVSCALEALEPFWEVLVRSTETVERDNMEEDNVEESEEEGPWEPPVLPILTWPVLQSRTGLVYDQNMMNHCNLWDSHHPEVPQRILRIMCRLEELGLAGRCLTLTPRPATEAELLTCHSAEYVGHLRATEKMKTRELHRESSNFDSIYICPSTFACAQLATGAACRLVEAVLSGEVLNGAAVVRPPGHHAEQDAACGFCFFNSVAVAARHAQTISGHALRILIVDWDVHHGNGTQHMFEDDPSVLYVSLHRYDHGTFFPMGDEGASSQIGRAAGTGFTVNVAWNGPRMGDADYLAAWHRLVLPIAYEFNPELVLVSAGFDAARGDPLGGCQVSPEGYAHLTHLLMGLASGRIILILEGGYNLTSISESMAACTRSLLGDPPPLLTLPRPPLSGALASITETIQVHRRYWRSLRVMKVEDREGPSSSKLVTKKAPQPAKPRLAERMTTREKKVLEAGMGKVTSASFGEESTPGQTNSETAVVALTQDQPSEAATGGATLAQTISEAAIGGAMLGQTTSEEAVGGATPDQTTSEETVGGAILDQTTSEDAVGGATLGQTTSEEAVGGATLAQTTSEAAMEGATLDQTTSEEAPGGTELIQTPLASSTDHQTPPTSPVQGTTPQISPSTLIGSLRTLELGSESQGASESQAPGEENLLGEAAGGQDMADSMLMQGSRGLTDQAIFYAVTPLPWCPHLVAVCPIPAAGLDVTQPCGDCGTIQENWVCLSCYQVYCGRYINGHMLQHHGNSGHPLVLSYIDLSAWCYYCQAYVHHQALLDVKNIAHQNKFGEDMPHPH
Human HDAC8, sequence (Q9BY41 whole entry): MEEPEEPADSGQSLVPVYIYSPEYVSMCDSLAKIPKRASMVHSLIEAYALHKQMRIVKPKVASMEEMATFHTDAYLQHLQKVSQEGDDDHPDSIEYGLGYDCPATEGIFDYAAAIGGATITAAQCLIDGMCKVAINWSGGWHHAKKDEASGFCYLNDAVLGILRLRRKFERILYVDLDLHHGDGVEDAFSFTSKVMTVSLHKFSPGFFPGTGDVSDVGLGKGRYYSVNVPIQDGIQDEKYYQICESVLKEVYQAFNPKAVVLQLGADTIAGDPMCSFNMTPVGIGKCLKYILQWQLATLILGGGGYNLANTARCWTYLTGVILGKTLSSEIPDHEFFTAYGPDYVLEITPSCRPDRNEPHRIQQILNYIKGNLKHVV
Human HDAC11, sequence (Q96DB2 whole entry): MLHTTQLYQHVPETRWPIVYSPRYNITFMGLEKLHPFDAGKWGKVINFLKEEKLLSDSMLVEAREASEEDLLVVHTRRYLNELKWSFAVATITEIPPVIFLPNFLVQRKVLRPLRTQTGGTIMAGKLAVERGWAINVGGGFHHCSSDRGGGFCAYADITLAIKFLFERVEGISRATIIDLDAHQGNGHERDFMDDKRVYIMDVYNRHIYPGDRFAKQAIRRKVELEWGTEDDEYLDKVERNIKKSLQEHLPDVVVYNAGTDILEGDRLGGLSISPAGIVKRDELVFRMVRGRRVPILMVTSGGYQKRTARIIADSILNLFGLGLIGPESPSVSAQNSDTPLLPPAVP
Human HDAC1, sequence (Q13547 whole entry): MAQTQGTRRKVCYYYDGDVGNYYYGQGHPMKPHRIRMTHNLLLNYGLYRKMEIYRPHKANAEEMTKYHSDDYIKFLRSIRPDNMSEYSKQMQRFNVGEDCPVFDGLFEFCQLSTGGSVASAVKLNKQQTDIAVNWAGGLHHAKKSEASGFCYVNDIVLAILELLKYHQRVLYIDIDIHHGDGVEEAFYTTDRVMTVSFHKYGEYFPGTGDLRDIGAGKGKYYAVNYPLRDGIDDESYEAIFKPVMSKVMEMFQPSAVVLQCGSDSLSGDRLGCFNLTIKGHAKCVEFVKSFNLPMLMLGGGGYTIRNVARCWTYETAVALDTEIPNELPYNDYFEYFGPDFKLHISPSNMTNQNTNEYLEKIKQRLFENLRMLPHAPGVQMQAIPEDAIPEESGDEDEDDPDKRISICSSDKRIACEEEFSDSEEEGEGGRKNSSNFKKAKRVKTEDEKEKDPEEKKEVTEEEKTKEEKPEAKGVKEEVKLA

Row | IC50 (A549 [1]) [µM] | IC50 at 72 h (in vitro [2]) [µM] | IC50 (Human HDAC11) [µM] | IC50 (LNCap [3]) [µM] | IC50 (HepG2 [4]) [µM] | IC50 (Human HDAC1) [µM] | IC50 (U87MG [5]) [µM] | IC50 (PANC1 [6]) [µM] | IC50 (Human HDAC8) [µM] | IC50 at 72 h (in vitro [7]) [µM] | IC50 (Human HDAC6) [µM] | Compound | IC50 (HL60) [µM] | IC50 (MV4-11; [13]) [µM] | IC50 (MOLM13; [14]) [µM] | further results
1 | 8.96 ± 0.17 | 123.2 ± 0.33 | 16.7 | 5.74 ± 0.51 | 6.64 ± 0.92 | 13.4 | 6.13 ± 0.78 | 8.47 ± 0.04 | 1.16 | 100.5 ± 0.37 | 0.057 | O=C(NO)c1ccc(Cn2c(=O)n(CCc3ccccc3)c(=O)c3cc(F)ccc32)cc1 [Compound 17, 4-((6-fluoro-2,4-dioxo-3-phenethyl-3,4-dihydroquinazolin-1(2H)-yl)methyl)-N-hydroxybenzamide] | 2.37 ± 0.11 | 3.13 ± 0.09 | 356 ± 0.09 | –
2 | 2.28 ± 0.27 | 85.74 ± 0.17 | – | 1.07 ± 0.14 | 2.74 ± 0.29 | 9.54 | 2.1 ± 0.06 | 3.52 ± 0.09 | 1.64 | 75.79 ± 0.12 | 0.021 | O=C(NO)c1ccc(Cn2c(=O)n(CCc3ccccc3)c(=O)c3ccc(Cl)cc32)cc1 [Compound 8, 4-((7-chloro-2,4-dioxo-3-phenethyl-3,4-dihydroquinazolin-1(2H)-yl)methyl)-N-hydroxybenzamide] | 0.44 ± 0.04 | 0.37 ± 0.02 | 0.48 ± 0.08 | –
3 | 2.98 ± 0.12 | 37.82 ± 0.03 | – | 1.87 ± 0.18 | 2.75 ± 0.02 | – | 2.64 ± 0.04 | 4.29 ± 0.08 | – | 32.7 ± 0.03 | – | O=C(Cc1ccc(Cn2c(=O)n(CCc3ccccc3)c(=O)c3ccccc32)c(F)c1)NO [Compound 19, 2-(4-((2,4-dioxo-3-phenethyl-3,4-dihydroquinazolin-1(2H)-yl)methyl)-3-fluorophenyl)-N-hydroxyacetamide] | 1.68 ± 0.09 | 1.87 ± 0.03 | 1.74 ± 0.08 | –

Second part, the compound before the results:

Row | Compound | IC50 (A549 [1]) [µM] | IC50 at 72 h (in vitro [2]) [µM] | IC50 (Human HDAC11) [µM] | IC50 (LNCap [3]) [µM] | IC50 (HepG2 [4]) [µM] | IC50 (Human HDAC1) [µM] | IC50 (U87MG [5]) [µM] | IC50 (PANC1 [6]) [µM] | IC50 (Human HDAC8) [µM] | IC50 at 72 h (in vitro [7]) [µM] | IC50 (Human HDAC6) [µM] | IC50 (HL60) [µM] | IC50 (MV4-11; [13]) [µM] | IC50 (MOLM13; [14]) [µM] | further results
4 | O=C(NO)c1ccc(Cn2c(=O)n(CCc3ccccc3)c(=O)c3ccc(O)cc32)cc1 [Compound 4, N-hydroxy-4-((7-hydroxy-2,4-dioxo-3-phenethyl-3,4-dihydroquinazolin-1(2H)-yl)methyl)benzamide] | 8.04 ± 0.28 | 156.4 ± 0.42 | 5.5 | 2.97 ± 0.22 | 6.12 ± 0.33 | 8.28 | 4.28 ± 0.67 | 6.54 ± 0.11 | 2.75 | 147.1 ± 0.51 | 0.028 | 0.67 ± 0.09 | 0.75 ± 0.11 | 0.81 ± 0.09 | –
5 | O=C(CCCCCCC(=O)Nc1ccccc1)NO [SAHA, reference compound] | – | – | – | – | – | – | – | – | – | – | – | 1.85 ± 0.08 | – | – | IC50 (Vero): 26.6 µM
6 | COc1ccccc1CCn1c(=O)c2ccccc2n(Cc2ccc(C(=O)NO)cc2)c1=O [Compound 15, N-hydroxy-4-((3-(2-methoxyphenethyl)-2,4-dioxo-3,4-dihydroquinazolin-1(2H)-yl)methyl)benzamide] | – | – | 34.4 | – | – | – | – | – | 0.525 | – | 0.011 | 1.22 ± 0.08 | – | – | IC50 (LNCap [8]): 5.71 ± 0.32 µM; IC50 (HepG2 [9]): 7.11 ± 0.28 µM; IC50 at 72 h (in vitro [2]; Vero normal cells): 96.92 ± 0.11 µM; IC50 (MV4-11; [15]): 1.65 ± 0.03 µM; IC50 (A549 [10]): 5.69 ± 0.21 µM; IC50 (MOLM13; [16]): 1.47 ± 0.07 µM; IC50 (PANC1 [11]): > 10 µM; IC50 (U87MG [12]): 7.08 ± 0.8 µM; IC50 at 72 h (in vitro [7]; FHs173We normal cells): 55.44 ± 0.09 µM
7 | N#Cc1ccc2c(=O)n(CCc3ccccc3)c(=O)n(Cc3ccc(C(=O)NO)cc3)c2c1 [Compound 3, 4-((7-cyano-2,4-dioxo-3-phenethyl-3,4-dihydroquinazolin-1(2H)-yl)methyl)-N-hydroxybenzamide] | – | – | – | – | – | 12 | – | – | 1.3 | – | 13.5 | > 10 | – | – | IC50 (LNCap [8]): > 10 µM; IC50 (HepG2 [9]): > 10 µM; IC50 at 72 h (in vitro [2]; Vero normal cells): > 10 µM; IC50 (MV4-11; [15]): > 10 µM; IC50 (A549 [10]): > 10 µM; IC50 (MOLM13; [16]): > 10 µM; IC50 (PANC1 [11]): > 10 µM; IC50 (U87MG [12]): > 10 µM; IC50 at 72 h (in vitro [7]; FHs173We normal cells): > 200 µM

From patent US11535598B2, “Histone deacetylases (HDACs) inhibitors” (ANNJI PHARMACEUTICAL CO., LTD., priority 2017, dated 2022)
